Data: patent publication US9309242B2, “Substituted pyrido[2,3-b]pyrazines as FGFR kinase inhibitors” (priority 2011, dated 2016)

Tests used:
FGFR1 (h) = FGFR1 (h) (Homo sapiens, UniProt P11362); experiment: FGFR1 (enzymatic assay), TR-FRET; type: biochemical; details: read-out: FGFR 1 pIC50 (converted)
[1] = test system: Ba/F3-KDR-transfected cells; experiment: Ba/F3-KDR (plus IL3) cellular proliferation assay, counterscreen with 10 ng/ml murine IL3; type: cell-based; details: plus IL3 (10 ng/ml murine IL3, counterscreen); read-out: BAF3-KDR (PLUS IL3) pIC50 (converted)
In short: (§1)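 Cells grown with test compound at 37° C and 5% CO2 for 24 hours were given a resazurin/ferricyanide/ferrocyanide reagent for 4 hours before fluorescence (540/590 nm) was recorded.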

FGFR3 (h) = FGFR3 (h) (Homo sapiens, UniProt P22607); experiment: FGFR3 (enzymatic assay), TR-FRET; type: biochemical; details: read-out: FGFR 3 pIC50 (converted)
Excerpt: Time-Resolved Fluorescence Resonance Energy Transfer (TR-FRET) signal (ex340 nm.

[2] = target: T1, Ba/F3-FGFR3-transfected cells (Homo sapiens, UniProt P22607); experiment: Ba/F3-FGFR3 (minus IL3) cellular proliferation assay, Alamar Blue; type: cell-based
T1 construct: BAF3-FGFR3 (MIN IL3) pIC50; other: minus IL3
In short: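 Ba/F3 cells transfected with FGFR3, 20000/well in phenol red-free RPMI-1640 with 10% FBS, exposed to compound for 24 h at 37 °C, 5% CO2. Alamar Blue (resazurin) added for 4 h more; fluorescence read at ex 540/em 590 nm. Counterscreen run the same way with 10 ng/ml murine IL3.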

[3] = target: Ba/F3-FGFR4-transfected cells (Homo sapiens, UniProt P22455); experiment: Ba/F3-FGFR4 cellular proliferation assay, Alamar Blue; type: cell-based
In short: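 Here, cells seeded at 20000 per well were treated 24 hours with compound, then given a 4-hour Alamar Blue incubation at 37° C before RFU measurement at ex. 540 nm and em. 590 nm.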

FGFR2 (h) = FGFR2 (h) (Homo sapiens, UniProt P21802); experiment: FGFR2 (enzymatic assay), TR-FRET; type: biochemical; details: enzymatic assay; read-out: FGFR 2 pIC50 (converted)
In short: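 Phosphorylation of 500 nM Btn-Flt3 by human FGFR2 (150 ng/ml) is measured at 0.4 μM ATP. The buffer is 50 mM HEPES pH 7.5 containing 6 mM MnCl2, 1 mM DTT, 0.1 mM Na3VO4 and 0.01% Triton-X-100, and compound is tested at 1% DMSO final.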

[4] = target: T2, Ba/F3-KDR-transfected cells (Homo sapiens, UniProt P35968); experiment: Ba/F3-KDR (minus IL3) cellular proliferation assay, Alamar Blue; type: cell-based
T2 construct: BAF3-KDR (MIN IL3) pIC50; other: minus IL3
In short: as §1

[5] = test system: Ba/F3-FGFR1-transfected cells; experiment: Ba/F3-FGFR1 (plus IL3) cellular proliferation assay, counterscreen with 10 ng/ml murine IL3; type: cell-based; details: plus IL3 (10 ng/ml murine IL3, counterscreen); read-out: BAF3-FGFR1 (PLUS IL3) pIC50 (converted)
In short: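 Proliferation read-out: resazurin-based Alamar Blue fluorescence (540/590 nm) after 4 h, following 24 h compound treatment of 20000 Ba/F3-FGFR1 cells per well in 10% FBS RPMI at 37° C. IL3 counterscreen used the same protocol plus 10 ng/ml murine IL3.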

[6] = target: T3, Ba/F3-FGFR1-transfected cells (Homo sapiens, UniProt P11362); experiment: Ba/F3-FGFR1 (minus IL3) cellular proliferation assay, Alamar Blue; type: cell-based
T3 construct: BAF3-FGFR1 (MIN IL3) pIC50; other: minus IL3
In short: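 Ba/F3-FGFR1 cells (20000 per well) were exposed to compound for 24 h at 37 °C in RPMI-1640 with 10% FBS. Alamar Blue (resazurin) was then added for 4 h, and fluorescence was read at ex 540/em 590 nm.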

Sequence of FGFR2 (h) (P21802 22-821): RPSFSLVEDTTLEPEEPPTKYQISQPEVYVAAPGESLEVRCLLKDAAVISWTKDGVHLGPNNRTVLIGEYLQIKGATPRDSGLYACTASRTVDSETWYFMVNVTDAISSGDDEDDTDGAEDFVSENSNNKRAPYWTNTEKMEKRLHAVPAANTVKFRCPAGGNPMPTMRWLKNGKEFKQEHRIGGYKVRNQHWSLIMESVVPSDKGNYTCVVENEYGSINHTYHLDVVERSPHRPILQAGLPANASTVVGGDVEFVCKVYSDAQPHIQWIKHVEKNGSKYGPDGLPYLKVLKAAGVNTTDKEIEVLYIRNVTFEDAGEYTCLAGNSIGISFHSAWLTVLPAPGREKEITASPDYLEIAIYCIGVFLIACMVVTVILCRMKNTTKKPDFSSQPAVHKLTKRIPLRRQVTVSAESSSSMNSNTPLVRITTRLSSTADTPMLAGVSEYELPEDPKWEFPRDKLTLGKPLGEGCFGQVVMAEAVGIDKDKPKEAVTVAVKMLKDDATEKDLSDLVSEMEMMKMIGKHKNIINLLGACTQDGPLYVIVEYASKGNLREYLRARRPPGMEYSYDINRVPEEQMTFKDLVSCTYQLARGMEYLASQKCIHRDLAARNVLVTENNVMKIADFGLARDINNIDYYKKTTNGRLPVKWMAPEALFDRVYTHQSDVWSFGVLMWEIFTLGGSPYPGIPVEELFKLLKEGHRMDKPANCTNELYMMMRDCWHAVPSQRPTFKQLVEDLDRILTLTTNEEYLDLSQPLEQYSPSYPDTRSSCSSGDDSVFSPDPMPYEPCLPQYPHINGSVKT
T2 sequence (P35968 whole entry, change not shown): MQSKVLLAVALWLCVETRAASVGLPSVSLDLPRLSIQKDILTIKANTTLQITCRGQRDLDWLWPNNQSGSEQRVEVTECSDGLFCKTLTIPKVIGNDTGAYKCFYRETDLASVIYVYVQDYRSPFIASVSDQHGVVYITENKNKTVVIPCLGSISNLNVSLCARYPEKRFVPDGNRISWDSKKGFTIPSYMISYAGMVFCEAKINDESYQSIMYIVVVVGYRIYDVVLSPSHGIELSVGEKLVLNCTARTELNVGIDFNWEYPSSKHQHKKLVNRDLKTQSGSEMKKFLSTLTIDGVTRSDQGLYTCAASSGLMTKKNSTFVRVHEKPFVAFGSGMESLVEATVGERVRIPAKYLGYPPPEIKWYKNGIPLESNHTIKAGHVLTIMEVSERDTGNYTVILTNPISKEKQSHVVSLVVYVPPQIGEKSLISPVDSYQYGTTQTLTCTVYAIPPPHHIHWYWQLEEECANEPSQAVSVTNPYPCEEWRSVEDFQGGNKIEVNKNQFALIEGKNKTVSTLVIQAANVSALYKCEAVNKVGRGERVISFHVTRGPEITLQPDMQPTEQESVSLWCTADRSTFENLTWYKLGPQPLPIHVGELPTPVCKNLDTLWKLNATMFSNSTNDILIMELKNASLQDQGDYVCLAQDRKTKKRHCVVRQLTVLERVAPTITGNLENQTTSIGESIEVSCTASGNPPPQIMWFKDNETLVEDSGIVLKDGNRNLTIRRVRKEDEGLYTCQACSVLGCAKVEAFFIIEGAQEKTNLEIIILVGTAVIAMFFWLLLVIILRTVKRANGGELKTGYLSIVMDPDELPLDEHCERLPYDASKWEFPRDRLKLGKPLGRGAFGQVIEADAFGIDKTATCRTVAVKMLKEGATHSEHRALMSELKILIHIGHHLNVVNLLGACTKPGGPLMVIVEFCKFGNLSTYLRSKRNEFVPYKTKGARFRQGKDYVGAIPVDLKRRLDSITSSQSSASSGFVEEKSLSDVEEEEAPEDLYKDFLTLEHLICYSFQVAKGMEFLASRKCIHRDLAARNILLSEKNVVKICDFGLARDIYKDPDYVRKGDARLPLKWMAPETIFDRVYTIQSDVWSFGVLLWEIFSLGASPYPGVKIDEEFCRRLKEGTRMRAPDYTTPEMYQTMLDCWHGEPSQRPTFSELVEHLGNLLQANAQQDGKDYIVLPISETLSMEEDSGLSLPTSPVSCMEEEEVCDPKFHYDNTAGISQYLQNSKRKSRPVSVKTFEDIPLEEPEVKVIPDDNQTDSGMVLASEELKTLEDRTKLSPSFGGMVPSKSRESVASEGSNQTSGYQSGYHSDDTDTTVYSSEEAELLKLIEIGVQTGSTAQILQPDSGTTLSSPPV
T3 sequence (P11362 whole entry, change not shown): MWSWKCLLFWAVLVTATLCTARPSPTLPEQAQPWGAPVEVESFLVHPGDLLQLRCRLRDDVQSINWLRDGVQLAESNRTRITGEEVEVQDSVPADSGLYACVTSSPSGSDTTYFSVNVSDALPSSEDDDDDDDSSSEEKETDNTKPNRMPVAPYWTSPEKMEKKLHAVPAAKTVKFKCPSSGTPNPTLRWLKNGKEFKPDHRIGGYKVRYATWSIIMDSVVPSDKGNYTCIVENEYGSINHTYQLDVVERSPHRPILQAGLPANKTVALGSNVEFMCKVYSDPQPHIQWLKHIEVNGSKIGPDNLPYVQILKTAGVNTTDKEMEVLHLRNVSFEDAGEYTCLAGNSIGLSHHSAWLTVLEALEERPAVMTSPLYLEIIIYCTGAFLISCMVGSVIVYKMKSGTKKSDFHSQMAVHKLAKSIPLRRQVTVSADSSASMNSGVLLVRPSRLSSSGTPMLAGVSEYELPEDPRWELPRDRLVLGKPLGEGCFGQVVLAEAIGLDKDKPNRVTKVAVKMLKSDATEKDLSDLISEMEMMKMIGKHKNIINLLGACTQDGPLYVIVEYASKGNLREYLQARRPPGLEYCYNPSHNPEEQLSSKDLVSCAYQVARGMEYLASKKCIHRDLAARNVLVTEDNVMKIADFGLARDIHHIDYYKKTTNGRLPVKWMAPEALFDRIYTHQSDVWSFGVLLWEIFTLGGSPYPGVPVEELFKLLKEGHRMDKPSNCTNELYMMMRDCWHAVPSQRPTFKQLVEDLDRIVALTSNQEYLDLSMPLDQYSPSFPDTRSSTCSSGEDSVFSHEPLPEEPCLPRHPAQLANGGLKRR
T1 sequence (P22607 whole entry, change not shown): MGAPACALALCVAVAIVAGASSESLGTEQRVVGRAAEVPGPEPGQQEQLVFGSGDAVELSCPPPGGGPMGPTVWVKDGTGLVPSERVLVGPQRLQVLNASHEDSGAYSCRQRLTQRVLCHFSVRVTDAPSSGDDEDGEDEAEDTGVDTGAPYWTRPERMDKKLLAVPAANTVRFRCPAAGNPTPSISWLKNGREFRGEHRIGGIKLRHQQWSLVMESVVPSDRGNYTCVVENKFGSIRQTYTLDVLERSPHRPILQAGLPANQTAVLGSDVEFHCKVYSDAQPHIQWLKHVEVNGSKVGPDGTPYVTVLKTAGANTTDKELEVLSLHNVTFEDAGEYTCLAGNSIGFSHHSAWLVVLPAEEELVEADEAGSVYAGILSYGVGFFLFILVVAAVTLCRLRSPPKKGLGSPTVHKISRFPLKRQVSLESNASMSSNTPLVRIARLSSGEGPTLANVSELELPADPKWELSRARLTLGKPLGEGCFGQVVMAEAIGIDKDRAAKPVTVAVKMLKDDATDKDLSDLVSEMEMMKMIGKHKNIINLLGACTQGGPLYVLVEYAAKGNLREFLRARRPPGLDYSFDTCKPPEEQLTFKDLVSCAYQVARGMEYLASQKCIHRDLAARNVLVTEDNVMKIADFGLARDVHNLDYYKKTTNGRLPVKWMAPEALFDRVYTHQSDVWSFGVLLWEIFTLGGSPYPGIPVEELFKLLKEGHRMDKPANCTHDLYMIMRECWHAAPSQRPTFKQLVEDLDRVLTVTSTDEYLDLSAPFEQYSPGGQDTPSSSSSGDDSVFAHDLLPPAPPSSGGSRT
Sequence of FGFR1 (h) (P11362 22-822): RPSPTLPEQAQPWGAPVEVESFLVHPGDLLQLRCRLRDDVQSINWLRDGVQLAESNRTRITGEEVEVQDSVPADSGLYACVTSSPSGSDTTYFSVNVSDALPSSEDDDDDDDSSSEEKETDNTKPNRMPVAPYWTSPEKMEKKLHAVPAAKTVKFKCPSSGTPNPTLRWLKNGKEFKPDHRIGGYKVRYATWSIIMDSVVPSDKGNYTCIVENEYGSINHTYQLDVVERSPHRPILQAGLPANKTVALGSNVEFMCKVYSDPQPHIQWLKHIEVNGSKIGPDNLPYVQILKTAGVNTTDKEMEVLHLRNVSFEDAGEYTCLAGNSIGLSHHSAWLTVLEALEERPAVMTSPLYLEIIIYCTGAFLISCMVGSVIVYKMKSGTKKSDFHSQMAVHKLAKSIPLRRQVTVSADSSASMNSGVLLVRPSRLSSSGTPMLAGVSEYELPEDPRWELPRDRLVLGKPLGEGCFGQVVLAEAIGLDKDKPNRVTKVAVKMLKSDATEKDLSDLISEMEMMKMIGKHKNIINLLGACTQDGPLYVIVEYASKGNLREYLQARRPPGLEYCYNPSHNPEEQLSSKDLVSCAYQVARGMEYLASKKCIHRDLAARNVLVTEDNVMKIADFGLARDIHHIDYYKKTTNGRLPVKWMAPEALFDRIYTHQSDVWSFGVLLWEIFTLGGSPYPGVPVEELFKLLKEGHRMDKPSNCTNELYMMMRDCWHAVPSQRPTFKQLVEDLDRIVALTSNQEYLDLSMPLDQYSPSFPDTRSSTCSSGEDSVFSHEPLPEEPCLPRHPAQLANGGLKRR

Row | Compound | IC50 (FGFR1 (h)) [nM] | IC50 [1] [nM] | IC50 (FGFR3 (h)) [nM] | BAF3-FGFR3 (MIN IL3) pIC50 [2] | BAF3-FGFR4 pIC50 [3] | IC50 (FGFR2 (h)) [nM] | BAF3-KDR (MIN IL3) pIC50 [4] | IC50 [5] [nM] | BAF3-FGFR1 (MIN IL3) pIC50 [6]
1 | COc1cc(O)c(F)c(N(Cc2ncc[nH]2)c2ccc3ncc(-c4cnn(C)c4)nc3n2)c1 [Compound 96] | 0.741 | > 10000 | 1.07 | ~8.09 | 7.16 | 1.58 | 5.89 | > 10000 | 8.08
2 | COc1cc(OC)c(F)c(N(Cc2ncc[nH]2)c2ccc3ncc(-c4cccnc4)nc3n2)c1 [Compound 190a] | 1.02 | > 10000 | 2 | 7.72 | 7.11 | 2.04 | 5.82 | > 10000 | 7.94
3 | COc1cc(/N=c2\ccc3ncc(-c4cnn(C)c4)nc3n2CC2COC2)c(F)c(OC)c1 [Compound 143] | 1.26 | > 10000 | 0.759 | 5.42 | 5.29 | 1.51 | <5 | > 10000 | 5.48
4 | COc1cc(OC)c(F)c(N(CCNC2COC2)c2ccc3ncc(-c4cnn(C)c4)nc3n2)c1 [Compound 221] | 1.51 | > 10000 | 0.891 | ~7.67 | 6.98 | 3.09 | 6.11 | > 10000 | 7.53
5 | CCn1cc(-c2cnc3ccc(N(Cc4ncc[nH]4)c4cc(OC)cc(OC)c4F)nc3n2)cn1 [Compound 223] | 0.55 | > 10000 | 1.23 | ~8.58 | 7.95 | 1.58 | 6.81 | > 10000 | 8.85
6 | COc1cc(OC)c(F)c(N(Cc2c(C)noc2C)c2ccc3ncc(-c4cnn(C)c4)nc3n2)c1 [Compound 178] | 11.2 | > 10000 | 3.55 | 6.29 | 5.83 | 7.41 | <5 | > 10000 | 6.20
7 | COc1cc(OC)cc(N(Cc2nc(OC)cc(OC)n2)c2ccc3ncc(-c4cnn(C)c4)nc3n2)c1 [Compound 174] | ~39.8 | > 10000 | 36.3 | 5.57 | 5.45 | 6.92 | <5 | > 10000 | 5.68
8 | COc1cc(OC)cc(N(CC2COC2)c2ccc3ncc(-c4cnn(C)c4)nc3n2)c1 [Compound 142] | 16.2 | > 10000 | 5.75 | 5.30 | 5.10 | 7.94 | <5 | > 10000 | 5.49
9 | COc1cc(/N=c2\ccc3ncc(-c4cnn(C)c4)nc3n2CCN2CCCC2=O)c(F)c(OC)c1 [Compound 156] | 2.95 | > 10000 | 1.91 | 7.27 | 6.68 | 2.69 | 5.52 | > 10000 | 7.17
10 | COc1cc(OC)c(F)c(N(Cc2ncc[nH]2)c2ccc3ncc(-c4cnn(C(CO)CCl)c4)nc3n2)c1 (stereo not drawn) [Compound 209] | 0.776 | > 10000 | 1.32 | 8.25 | 7.92 | 2.4 | 6.57 | > 10000 | 8.71
11 | COc1cc(OC)c(F)c(N(Cc2nc(Br)c[nH]2)c2ccc3ncc(-c4cnn(C)c4)nc3n2)c1 [Compound 238] | 0.479 | > 10000 | 1.17 | ~8.45 | 8.06 | 2.14 | 6.46 | > 10000 | ~8.32
12 | COc1cc(/N=c2\ccc3ncc(-c4cnn(C)c4)nc3n2Cc2cc(C)on2)c(F)c(OC)c1 [Compound 181] | 1.51 | > 10000 | 1.55 | 8.05 | 7.55 | 2.19 | 5.97 | > 10000 | 7.76
13 | COc1cc(/N=c2\ccc3ncc(-c4cnn(C)c4)nc3n2CC2CCC(=O)N2)cc(OC)c1 (stereo not drawn) [Compound 248] | 5.13 | > 10000 | 1.82 | 6.67 | 6.25 | 3.63 | 5.76 | > 10000 | 6.70
14 | COc1cc(OC)c(F)c(N(CCN)c2ccc3ncc(-c4cnn(C)c4)nc3n2)c1 [Compound 168] | 1.7 | > 10000 | 3.16 | 6.76 | 6.72 | 2.04 | 5.57 | > 10000 | 7.48
